Our source for the IC50 values is patent US20190192524A1, “Modulators of Caspase-6” (The University of British Columbia, priority 2014, published 2019).

One assay addresses T1, recombinant caspase-6 (Homo sapiens, UniProt P55212).
T1 construct: purchased BioMol
T1 sequence (P55212 24-293): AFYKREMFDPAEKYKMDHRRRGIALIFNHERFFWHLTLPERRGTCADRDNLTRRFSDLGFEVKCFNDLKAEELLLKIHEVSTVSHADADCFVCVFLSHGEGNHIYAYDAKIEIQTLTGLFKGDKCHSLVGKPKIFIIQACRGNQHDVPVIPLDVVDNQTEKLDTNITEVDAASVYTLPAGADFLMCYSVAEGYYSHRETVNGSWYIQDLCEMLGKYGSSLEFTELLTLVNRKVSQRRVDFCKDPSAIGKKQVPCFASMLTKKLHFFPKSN
Description: Simultaneous caspase-6 cleavage and 586 fragment detection by FRET. The class given is biochemical. The conditions noted are these: cell-free; Htt substrate from COS-7 cell lysates. How it is done:
Different concentrations of the PG3 compounds were incubated with the Htt protein and the caspase-6 enzyme. The Htt substrate from COS-7 cell lysates is cleaved by caspase 6 and fragments are detected by FRET between the N-terminal BKP1 antibody and the neo-epitope antibody against amino acid 586.
COS-7 cells were grown in DMEM supplemented with 10% fetal bovine serum, 1%/penicillin/streptomycin and 0.5% glutamine. Transfections were performed using the Fugene reagent (Roche) according to manufacturer's instructions. The transfected DNA encodes amino acids 1-1212 of the human Htt protein with 15 glutamines and a C-terminal HA-tag, under control of a CMV promoter (Warby, 2008, supra; Wellington et al., 2000. J Biol Chem 275:19831-19838). The construct that was transfected is 4c Htt, which contains D→A mutations at amino acids 513, 530, 552 and […] (SEQ ID NO: 1). 24 h after transfection, cells were harvested by trypsinization, pellets washed in PBS and lysed by suspension in lysis buffer (50 mM Tris pH 8, 150 mM NaCl, 1% Igepal, supplemented with 1× complete protease inhibitor (Roche) and 4 mM Pefabloc). Lysates were incubated on ice for 10 min, vortexed and sonicated for 4 sec before centrifugation at 21,000×g for 10 min at 4° C. Supernatants were saved, protein concentration determined with the Biorad DC assay and stored at −80° C. until use.
Dilution series of cell lysates and caspase-6 (2.2× final concentration) were prepared in FRET cleavage buffer (10 mM HEPES pH 7.4, 100 mM NaCl, 0.05% gelatin, 0.1% CHAPS, 2 mM DTT) since this buffer was previously found to best stabilize caspase-6 in dilute form at room temperature. For negative controls, 22 μM zVAD-fmk was added to the caspase-6 dilutions.
Tb-labelled BKP1 antibody and D2-labelled 586 antibody (Cisbio) were diluted to 1 ng/μl (Tb) and 10 ng/μl (D2) in FRET cleavage buffer and pre-mixed at a 1:1 ratio.
In each well of a white 384 well plate (Nunc), 10 μl cell lysate were mixed with 10 μl caspase and 2 μl antibody mix, the plate was centrifuged briefly and incubated in the Victor 3 multilabel plate reader (Perkin Elmer) at 37° C. FRET was measured every 30 min for up to 2 h with the following settings: Excitation: 340 nm, Emission 1: 615 nm, Emission 2: 665 nm, 50 μs delay, 200 μs window time, 2000 μs cycle time. To obtain the final FRET signal, the ratio between Emission 2/Emission 1 (D2/Tb signal) was calculated. After 2 h at 37° C., the assay plate was sealed and after further incubation at 4° C. for 20 h, the FRET signal was read again.

Assay [1] concerns the target T2, human caspase 6 lacking the pro-domain (Homo sapiens, UniProt P55212).
T2 sequence (P55212 with tags, fused parts or gaps): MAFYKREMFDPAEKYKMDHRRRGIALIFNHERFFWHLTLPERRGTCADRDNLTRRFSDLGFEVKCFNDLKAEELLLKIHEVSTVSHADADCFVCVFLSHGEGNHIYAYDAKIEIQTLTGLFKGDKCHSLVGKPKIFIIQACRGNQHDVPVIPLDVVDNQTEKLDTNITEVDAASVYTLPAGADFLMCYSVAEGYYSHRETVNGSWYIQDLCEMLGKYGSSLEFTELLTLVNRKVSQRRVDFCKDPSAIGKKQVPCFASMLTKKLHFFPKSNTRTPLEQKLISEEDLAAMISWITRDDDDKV
The experiment in a line: Lamin A cleavage in HEK 293 cells overexpressing caspase-6 (Mesoscale ELISA). Also on record: The transfected DNA encodes amino acids 24-293 of the human caspase 6 enzyme with a C-terminal DDK tag; DDK-tag (C); expressed in transfected cells; host or cells: HEK 293. The conditions noted are these: 24 hr incubation; cleaved lamin A quantified; read-out: HEK intracellular IC50. The class given is cell-based. How it is done:
HEK 293 cells were grown in DMEM supplemented with 10% fetal bovine serum, 1%/penicillin/streptomycin and 0.5% glutamine. Transfections were performed using the Fugene reagent (Roche) according to manufacturer's instructions. The transfected DNA encodes amino acids 24-293 of the human caspase 6 enzyme with a C-terminal DDK tag under the control of a CMV promoter (vector pCMVSport6) (SEQ ID NO: 2). The transfected HEK 293 were used to measure the intracellular activity of caspase-6 as evidenced by cleavage of the lamin substrate (described below).
The quantitative assessment of intracellular lamin cleavage in caspase-6 transfected HEK 293 cells was done as described previously (Ehrnhoefer et al. PLoS One, 2011. 6(11):e27680) Briefly, HEK 293 cell lysates were adjusted to 1 μg protein/μl in lysis buffer, diluted to 0.2 μg/μl in PBS and 5 μl were added to a Multi-Array high-bind 96 well plate (Mesoscale discovery). After incubation at room temperature for 1 h, the wells were blocked by adding 150 μl 5% BSA in PBS, followed by further incubation at room temperature for 1 h. Wells were then washed 3× with 150 μl PBS+0.05% Tween, and 25 μl antibody mix was added (Cell signaling #2036 at 1:100 dilution, Mesoscale discovery goat-anti-rabbit sulfo-tag at 1:500 dilution in PBS with 1% BSA). After lh incubation at room temperature, the wells were washed 3× with 150 μl PBS+0.05% Tween, and 150 μl/well 2× reading reagent (Mesoscale discovery) was added. The plate was read on a Sector imager 6000 (Mesoscale discovery).
The PG3 analog compounds were also tested for their ability to inhibit caspase-6 within cultured cells. HEK 293 cells were transfected with human caspase 6 lacking the pro-domain and were incubated with increasing concentrations of the PG3 analogs. After a 24 hr incubation, the excess compound was washed away, the cells were lysed and the amount of cleaved lamin A protein was quantified by the Mesoscale ELISA method.
A general note: ELISA stands for enzyme-linked immunosorbent assay.

`O=c1oc(C#Cc2ccccc2)nc(O)c1Cc1ccccc1` [PG-3d, 5-Benzyl-4-hydroxy-2-(phenylethynyl)-6H-1,3-oxazin-6-one]: the results for the IC50 (at recombinant caspase-6; in assay [1]) were 5.6 µM and 2.6 µM, respectively.

By IC50 is commonly meant the concentration at which inhibition is half-maximal.
